Consider two compounds from patent US9499472B2, “Aspartylamide inhibitors of excitatory amino acid transporters” (priority 2012, dated 2016).

Series [1] deals with panel of central nervous system protein binding sites defined in FIG. 8. The series is described as follows: competitive radioligand binding panel of central nervous system protein binding sites (FIG. 8). Particulars: 1 micromole assay concentration, duplicate. Details: key: No Activity: no greater than or equal to 50% inhibition of binding. As to the method: In separate in vitro competitive pharmacological assays performed in duplicate, compounds 1 and 6 at 1 micromole concentrations were evaluated against the panel of central nervous system protein binding sites that are defined in FIG. 8. As noted in FIG. 8, the assays utilized specific established radioligands for the respective competition binding assays, and respective assay ligand standards that afforded respective pharmacological inhibition binding curves of half maximal inhibitory concentration (IC50) values. […] In other words, the concentrations of compounds 1 and 6 that would be required to inhibit the FIG. 8 radioligand bindings at their respective protein sites would have to be greater than 1 micromole concentration.

Series [2] is described as follows: brain penetration and metabolism in live mice, LC/MS-MS of compound 6 in brain and plasma. In kind it is in vivo, C57BL/6 mice. Particulars: for levels of compound 6 (hydrolyzed compound 1) per gram brain tissue: mouse, 10 mg/Kg tail vein injection, all time points 1-90 min, ester vs acid administered. As to the method:
A series of separate experiments were performed with compounds 1 or 6 in groups of C57BL/6 mice (6-8 weeks old; Charles River, Wilmington, Mass.) as a function of dose and time, where concentrations of compound 6 in brain and plasma (nanogram of compound 6/g of brain tissue or blood) were measured by liquid chromatography/mass spectrometry (LC/MS-MS) detection by literature methods (Chernet et al., Life Sci. 78:340-346 (2005)). In general, doses of compounds 1 and 6 were prepared at 1, 5 or 10 mg/Kg in a homogenous solution composed of 3% dimethyl sulfoxide and 97% […] pH 7.4. Doses (0.25 mL volume) were administered by tail vein injection to groups (n≧3) of mice. Mice were sacrificed at 1, 3 10, 30, 60, 90 and 100 minutes post-injection. For some groups of mice, brains were removed, weighed, homogenized (polytron, in SDS and water) extracted with acetonitrile and then centrifuged where the acetonitrile supernatant was collected. For other groups of mice, blood was collected ([…]), weighed, and then the samples were centrifuged where the supernatant plasma was collected and extracted with acetonitrile with and without 0.1% formic acid. To validate the extraction methods, other control (non-dosed) mice brains and plasma samples were spiked with various amounts (5-25,000 ng) of compound 6 and were processed in a similar fashion and then analyzed as described below. Respective acetonitrile extracts were diluted with methanol and 20 μL portions were then subjected to analytical reverse phase (C-18 analytical column, isocratic acetonitrile/water solvent) high performance liquid chromatography (HPLC), where the HPLC fractions were quantified using a mass spectrometer set to selectively monitor the mass-to-charge ratio of singly protonated compound 6 (C17H16FN2O3, exact mass: 315.11). In other analyses, a standard curve of compound 6 was constructed (5-25,000 nanogram mass range) and analyzed similarly. Quantities (nanograms, ng) of compound 6 from the dosed treated mouse brain and plasma samples were determined by correlation to the quantitative control spike method of detection (above) and also confirmed by interpolations against the compound 6 standard curve. Data was imported into Microsoft Excel and plotted as nanogram (ng) of detected hydrolyzed compound 1 (that is, compound 6/gram (g) brain tissue or plasma versus time (minutes). The data from the mouse experiments are shown in FIGS. 4 and 5.
Shown in FIG. 4 are the results from 10 mg/Kg administration of the ester compound 1 (shown as black bars) or the acid compound 6 (shown as grey bars) relative to the amounts of hydrolyzed compound 1 (that is, compound 6) per gram brain tissue at time points 1, 3, 10, 60 and 90 minutes post-injection. […]

In series [3] the target is T1, EAAT2 (Rattus norvegicus, UniProt P31596).
T1 construct: from tissue; host or cells: live male Sprague-Dawley rat brain and spinal cord (in vivo PET)
The series is described as follows: tracer PET brain imaging and quantitative EAAT2 detection in rat. In kind it is in vivo, rat (Sprague-Dawley). Particulars: 5 mg/Kg dose 10 minutes before tracer 2, all CNS ROIs, all times post-injection. As to the method: As an example of the tracer compound of the invention, rodent (rat) quantitative in vivo PET imaging trials are presented employing the tracer compound 2 of Example VI. The in vivo PET imaging was performed in parallel with magnetic resonance (MR) and computed axial tomography (CAT, CT) imaging methods, in which the latter two imaging methods afforded anatomical tissue information for co-registration to the acquired tracer quantitative PET data. […] Two rodent imaging trials (A-B) were performed employing two age-matched male Sprague-Dawley subjects. The age of the subjects were nearly identical to those described in the most recent rat (Sprague-Dawley, amongst others) stereotaxic brain atlas (Paxinos et al., “[…],” Academic Press: Burlington, Mass. (2007))
providing high confidence levels for identification and definition of explicit brain cerebral fine tissue structures as regions of interest (ROIs) for quantitative analysis, and as a function of three-dimensional (3D) co-registration of cerebral soft tissue identification by MR scan analysis and landmark anatomical features from CAT data.
The PET data were acquired with a Siemens Inveon microPET scanner (ca. 1.5 mm spatial resolution). Rodent subject tail vein tracer 2 injection volumes (Table 1) used the tracer 2 dose formulation described in Example VI. […]

The target in series [4] is T2, EAAT2 (Homo sapiens, UniProt P43004).
T2 construct: expressed in transfected cells; host or cells: C17.2 cells, transient transfection with FuGENE6
The series is described as follows: [3H]D-aspartate uptake by EAAT2 transiently expressed in C17.2 cells. In kind it is cell-based.
Procedure: The excitatory amino acid transporter 2 (EAAT2) was transiently expressed in C17.2 cells using an AAV-based vector pAM-CAG-EAAT3-WPRE as described in the literature (Esslinger). Cells between passages 10-20 were seeded at 5×10^4 cells/well in 12 well plates and grown in complete DMEM supplemented with 10% fetal bovine serum, 1 mM sodium pyruvate, 0.1 mM nonessential amino acids solution. At 24 hours after plating, cells were transfected using FuGENE6 Transfection Reagent (Roche, Indianapolis, Ind.) in a ratio of 4 μL of FuGENE6 to 3 μg of purified plasmid DNA in accordance with manufacturers instructions. The cells were used in the transport assays 24 hours following transfection as described by Esslinger. Briefly, transfected C17.2 cells were grown in DMEM containing 10% FCS in a humid atmosphere of 5% CO2. Near-confluent cells (plated at 5×10^4 cells/well) were rinsed with a physiological buffer (138 mM NaCl, 11 mM D-glucose, 5.3 mM KCl, 0.4 mM KH2PO4, 0.3 mM Na2HPO4, 1.1 mM CaCl2, 0.7 mM MgSO4, 10 mM HEPES, pH 7.4) and allowed to pre-incubate at 37° C. for 5 minutes.
Three types of binding experiments were performed: a) single concentrations of compounds 1 or 6 were added simultaneously to the cell assay with 1 μM ^3H-D-aspartate, b) six or more concentrations of compound 6 were added simultaneously to the cell assay with 1 μM ^3H-D-aspartate; and c) six or more concentrations of compound 6 were pre-incubated with cells for 25 minutes, after which 1 μM ^3H-D-aspartate was added to the cell to initiate the assay. […] The cells were dissolved in 0.4 N NaOH for 24 hours and analyzed for radioactivity by liquid scintillation counting and protein by the BCA (Pierce) method. For each type of uptake assay experiment, they were conducted with at least 2 cell-containing tissue culture wells, with duplicate samples from each well analyzed for radioactivity. […] Initial studies confirmed that uptake quantified in this manner was linear with time and protein levels and also that uptake in un-transfected C17.2 cells was indistinguishable from background. […]

By IC50 is commonly meant the concentration at which inhibition is half-maximal.

Each structure is given as a SMILES string. Where two headings read alike, the source gives them in different places.

T2 sequence (P43004 whole entry): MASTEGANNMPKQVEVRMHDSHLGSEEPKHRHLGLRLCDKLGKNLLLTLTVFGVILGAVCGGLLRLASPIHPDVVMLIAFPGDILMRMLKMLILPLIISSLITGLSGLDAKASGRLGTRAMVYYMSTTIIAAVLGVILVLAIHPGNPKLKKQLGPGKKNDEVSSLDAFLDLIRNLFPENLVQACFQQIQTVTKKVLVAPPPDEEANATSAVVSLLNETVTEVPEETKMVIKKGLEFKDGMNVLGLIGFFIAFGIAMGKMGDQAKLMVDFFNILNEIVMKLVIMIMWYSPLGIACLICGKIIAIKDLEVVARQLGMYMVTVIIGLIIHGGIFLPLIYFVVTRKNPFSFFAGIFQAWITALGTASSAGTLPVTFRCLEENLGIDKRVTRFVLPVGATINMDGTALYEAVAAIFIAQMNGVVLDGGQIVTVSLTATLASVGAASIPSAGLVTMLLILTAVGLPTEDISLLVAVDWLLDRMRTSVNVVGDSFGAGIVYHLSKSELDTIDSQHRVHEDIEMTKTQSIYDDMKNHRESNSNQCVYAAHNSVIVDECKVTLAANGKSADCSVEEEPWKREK
T1 sequence (P31596 whole entry): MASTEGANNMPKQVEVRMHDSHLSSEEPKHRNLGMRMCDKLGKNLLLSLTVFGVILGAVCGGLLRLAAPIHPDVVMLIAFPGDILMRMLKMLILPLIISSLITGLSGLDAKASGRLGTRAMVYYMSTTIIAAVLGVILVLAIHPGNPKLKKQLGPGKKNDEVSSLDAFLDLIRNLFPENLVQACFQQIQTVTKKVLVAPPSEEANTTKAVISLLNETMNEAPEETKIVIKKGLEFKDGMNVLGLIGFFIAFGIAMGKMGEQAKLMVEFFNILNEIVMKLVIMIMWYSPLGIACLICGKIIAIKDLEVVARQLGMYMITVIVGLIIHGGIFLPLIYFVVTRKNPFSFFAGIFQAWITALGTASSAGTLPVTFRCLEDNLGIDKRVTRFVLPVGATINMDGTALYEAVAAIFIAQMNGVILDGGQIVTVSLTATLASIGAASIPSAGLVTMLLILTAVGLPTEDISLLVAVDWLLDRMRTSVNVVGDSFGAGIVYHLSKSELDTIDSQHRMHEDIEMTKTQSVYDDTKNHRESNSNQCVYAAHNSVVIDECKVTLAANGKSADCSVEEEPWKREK

Turning to `COC(=O)[C@@H](N)CC(=O)Nc1ccc2c(c1)Cc1cc(F)ccc1-2` [compound 1, (S)-Methyl 2-amino-4-(7-fluoro-9H-fluoren-2-ylamino)-4-oxobutanoate], in series [1], the “inhibition of binding of FIG. 8 radioligands at their protein binding sites” value was “No Activity”. The “amount of compound 6 detected in mouse brain, 5 mg/Kg versus 1 mg/Kg” value in series [2] (mouse brain, 3, 10 and 100 minutes post-injection) is listed as “dose amount dependence”. Also, the “amount of compound 6 detected in plasma, 5 mg/Kg versus 1 mg/Kg” value in series [2] (mouse plasma, 3 and 10 minutes post-injection) is “dose amount dependence”. The “levels of compound 6 (hydrolyzed compound 1) per gram brain tissue” value in series [2] is recorded as “higher levels”. The “reduction of tissue SUV signals of tracer 2 by pre-administration (challenge)” value on EAAT2 [3] is 2-3 fold. On EAAT2 [4] (IC50, EAAT2 interaction, first experimental in vitro conditions (single concentrations, simultaneous addition)), the IC50 is greater than 10 µM. Further, the “inhibition of 1 μM [3H]D-aspartate uptake by EAAT2” value on EAAT2 [4] (concentrations up to 10 μM, added simultaneously with 3H-D-aspartate, 5 min) was “little or no inhibition”.

Take `N[C@@H](CC(=O)Nc1ccc2c(c1)Cc1cc(F)ccc1-2)C(=O)O` [compound 6, (S)-2-Amino-4-(7-fluoro-9H-fluoren-2-ylamino)-4-oxo-butanoic acid]: in series [1], the “inhibition of binding of FIG. 8 radioligands at their protein binding sites” value was “No Activity”. For the same compound, the “levels of compound 6 (hydrolyzed compound 1) per gram brain tissue” value in series [2] is on record as “lower levels”. Further, the “inhibition of 1 μM [3H]D-aspartate uptake by EAAT2” value against EAAT2 [4] is “almost completely inhibited all uptake”.
